Values of other authors, collected in paper PMC4041784, “Stereoselective Property of 20(S)-Protopanaxadiol Ocotillol Type Epimers Affects Its Absorption and Also the Inhibition of P-Glycoprotein” (PLoS ONE, 2014).

What was measured:
[1] = tested on: peroxisome proliferator activated receptor-γ; parameters: method as in PMID 22234331
human fecal microflora = tested on: human fecal microflora; parameters: method as in PMID 11824558
[2] = not told
[3] = parameters: method as in PMID 21258738, PMID 15734156

| Compound | permeability [2] [×10⁻⁶ cm/s] | oral bioavailability [3] | other results |
| --- | --- | --- | --- |
| 20(S)-Rg3 | – | – | peroxisome proliferator activated receptor-γ activity relative to 20(R)-Rg3 [1]: 10 fold; transformation amount into 20(S)-Rh2 or 20(S)-PPD relative to 20(R)-Rg3 (human fecal microflora): 19 fold |
| CC(C)=CCC[C@@](C)(O)[C@H]1CC[C@]2(C)[C@@H]1[C@H](O)C[C@@H]1[C@@]3(C)CC[C@H](O[C@@H]4O[C@H](CO)[C@@H](O)[C@H](O)[C@H]4O)C(C)(C)[C@@H]3CC[C@]12C [20(R)-Rh2] | 0.02 | – | – |
| CC(C)=CCCC(C)(O)C1CCC2C1C(O)CC1C2(C)CCC2C(C)(C)C(OC3OC(CO)C(O)C(O)C3O)CCC21C [20(S)-Rh2] | 0.3 | – | permeability difference between 20(R)-Rh2 and 20(S)-Rh2 [2]: 15 folds |
| CC(C)=CCC[C@](C)(O)[C@H]1CC[C@]2(C)[C@@H]1[C@H](O)C[C@@H]1[C@@]3(C)CC[C@H](O[C@@H]4O[C@H](CO)[C@@H](O)[C@H](O)[C@H]4O[C@@H]4O[C@H](CO)[C@@H](O)[C@H](O)[C@H]4O)C(C)(C)[C@@H]3CC[C@]12C [Rg3, Ginsenoside Rg3] | – | less than 5% | – |
| CC(C)=CCC[C@](C)(O)[C@H]1CC[C@]2(C)[C@@H]1[C@H](O)C[C@@H]1[C@@]3(C)CC[C@H](O[C@@H]4O[C@H](CO)[C@@H](O)[C@H](O)[C@H]4O)C(C)(C)[C@@H]3CC[C@]12C [Rh2, ginsenoside Rh2] | – | less than 5% | – |
